According to US8680129B2, “Compounds, composition, methods, targets for cancer therapy” (priority 2008, dated 2014):
Several values for one entry are separate records, joined by “and”; a condition that tells them apart may be missing. Identical values can stand only once.

How the values were obtained:
[1] = tested on: Cal27 cells; assay: WST-3 with or without mPMS plus apigenin, cell viability; format: cell-based, human; conditions: 30 μM mPMS added to 0.1 mM WST-3 and 30 μM apigenin
Method: (§1) Method: UM-SCC6, HT1080, Cal127, SK-Mel-5, and HEKa cells were treated with 0.1 mM WST-3 plus 30 μM mPMS, or WST-3 only, or untreated control in combination with 10 or 30 μM apigenin for 4 hours and, then, changed to normal growth medium and remained culture in this medium for another 24 hours. After the 24 hours culture, cell viabilities were measured with CCK8 Kit. Data were normalized to % of untreated control cells.

[2] = tested on: UM-SCC6 cells; assay: as above; format: cell-based, human; conditions: 30 μM mPMS added to 0.1 mM WST-3 and 30 μM apigenin
Method: as §1

[3] = tested on: non cancer human keratinocyte (HEKa); assay: Differential cellular responses to mPMS, cell viability; format: cell-based
Method: (§2) Non cancer human keratinocyte (HEKa), SK-Mel-5 human malonoma cell line (SK5), human head and neck cancer cell Cal27 line (Cal27) and UM-SCC6 line (SCC6) cells and human soft tissue sarcoma cell line HT1080 (HT1080) were treated with 30, 40 or 50 μM mPMS for 4 hours and then cultured in normal growth medium for another 24 hours. Cell viabilities were measured with CCK8 kit.

[4] = tested on: HEKa, SK-Mel-5, Cal27, UM-SCC6 and HT1080 cells; assay: Differential cellular responses to mPMS, cell viability, all lines; format: cell-based, human; conditions: 30, 40 or 50 μM mPMS 4 hours, then 24 hours
Method: as §2

[5] = tested on: UM-SCC6 cells; assay: mPMS dose-response with WST-1c and apigenin, cell viability; format: cell-based, human; conditions: for IC50: read-out: mPMS1050; for cell death: mPMS variable with 1 mM WST-1c and 10, 30 or 100 μM apigenin
Method: (§3) Method: A & B: HT1080 (FIG. 16A) and UM-SCC6 (FIG. 16B) cells were treated with variable concentrations of mPMS as indicated in combination with 1 mM WST-1c and 10, 30 or 100 μM apigenin for 4 hours and, then, changed to normal growth medium for another 24 hours. Cell viabilities were measured by CCK8 Kit. 1 mM WST-1 only, 0.12 mM mPMS only and 10% WST-1r were used as parallel control. AP 0: Untreated Control, AP 10: 10 μM Apigenin, AP 30: 30 μM Apigenin, AP 100: 100 μM Apigenin.

[6] = tested on: HT1080 cells; assay: as above; format: cell-based, human; conditions: mPMS variable with 1 mM WST-1c and 10, 30 or 100 μM apigenin
Method: as §3

[7] = tested on: Cal27, UM-SCC6 and HT1080 cells; assay: Differential cellular responses to mPMS, cell viability; format: cell-based, human; conditions: Cal27, UM-SCC6 and HT1080 cells 'respectively', only two values printed; read-out: 1050 of mPMS
Method: as §2

[8] = tested on: SK-Mel-5 cells; assay: WST-3 with apigenin, cell viability by CCK8; format: cell-based, human; conditions: apigenin or WST-3 alone
Method: (§4) Method: UM-SCC6, HT1080, Cal27, SK-Mel-5, and HEKa cells were treated with 50 or 100 μM WST-3 or 10 or 30 μM apigenin alone, or combination of WST-3 and apigenin at different concentrations for 4 hours with untreated cells as control, then, changed to normal growth medium and remained culture in this medium for another 24 hours. After the 24 hours culture, cell viabilities were measured with CCK8 Kit. Data were normalized to % of untreated control cells.

[9] = tested on: non cancer HEKa cells; assay: WST-3 with apigenin, cell viability by CCK8; format: cell-based, human; conditions: apigenin or WST-3 alone
Method: as §4

[10] = tested on: UM-SCC6, HT1080, Cal27, SK-Mel-5, and HEKa cells; assay: WST-3 or apigenin alone, cell viability, all tested lines; format: cell-based, human; conditions: 50 µM WST-3 or 30 μM apigenin alone, 4 hours then 24 hours
Method: as §4

[11] = tested on: UM-SCC6 cells; assay: CCK8, XTT, WST-1r comparison in combination with apigenin, cell viability; format: cell-based, human; conditions: for IC50: Homo sapiens, read-out: Apigenin 1050
Method: Method: HT1080 and UM-SCC6 cells were treated with 10% of WST-1r, CCK8 or XTT in combination with variable doses of apigenin for 4 hours and, then changed to normal growth medium for another 24 hours. Cell viability was measured with CCK8 kit.

[12] = tested on: UM-SCC6, Cal27 and HEKa cells; assay: Modified WST-1r and Apigenin, cancer versus non-cancer cells, single agents; format: cell-based, human; conditions: 10% modified WST-1r (mPMS 20 μM, WST-1c 1 mM) or Apigenin 30 or 100 μM, 4 hours then 24 hours
Method: Comparison of cell responses to modified WST-1r and Apigenin combination treatment between cancer cells and non-cancer cells. UM-SCC6, Cal27 human head and neck cancer cell lines and primary cultured human […] keratinocytes (HEKa) as labeled were treated with 10% modified WST-1r (mPMS 20 μM, WST-1c 1 mM) with (WST-1r 10) or without (WST-1r 0) 10% modified WST-1r in combination with 0 (Apigenin 0), 30 (Apigenin 30) or 100 (Apigenin 100) μM Apigenin for 4 hours, then, changed to apigenin in the corresponding concentrations for another 24 hours.

[13] = tested on: MDA-MB-231 cells; assay: WST-1r and apigenin dose-response, cell viability by CCK8; format: cell-based
Method: (§5) Method: UM-SCC6, MDA-MB-231, Cal27, HT1080, T294, B6-5 and A431 cells were treated with 3% or 10% of WST-1r or 10, 30, or 100 μM apigenin or combination of variable concentrations of WST-1r with apigenin in parallel with untreated control cells and DMSO control for 4 hours, then, the treatments were removed and the cells, thus, treated were changed to normal growth medium and maintained in culture for another 24 hours. DMSO was used as vehicle control. Cell viabilities were measured by CCK8 Kit and normalized to % of untreated control calls.

[14] = tested on: A431 cells; assay: as above; format: cell-based
Method: as §5

[15] = tested on: phosphorylated JNK in UM-SCC6 cells; assay: JNK phosphorylation (FACE Kit); format: cell-based, human; conditions: 4 hours
Method: Method: UM-SCC6 cells were treated with WST-1r and apigenin at the indicated doses for 4 hours, and then phosphorylated JNK and total JNK were measured in parallel with FACE Kit (Qiogen). The resulting data were normalized to total cell number measured by crystal violet staining The phosphorylated JNK from each measurement were normalized to the ratio of phosphorylated JNK over total JNK values.

[16] = tested on: ROS generation in UM-SCC6 cells; assay: Dose response of ROS generation (CM-H2-DCFDA fluorescence); format: cell-based, human
Method: Method: UM-SCC6 cells were labeled with 10 μM CM-H2-DCFDA for 15 minutes and then treated with WST-1r or CCK8 at the indicated amounts in combination with variable doses of apigenin (A) or IKK Inhibitor III (B) for 4 hours. Fluorescence at Ex485/Em535 were measured for detecting ROS generation that labeled by the CM-H2-DCFDA.

[17] = tested on: UM-SCC6 cells; assay: Other tetrazolium salts as substitutes of WST-1r with apigenin, cell viability; format: cell-based, human; conditions: 1 mM WST-1, 0.4 mM WST-3, 0.5 mM WST-4, 0.5 mM WST-5, 0.12 mM mPMS; apigenin 10, 30 or 100 μM; 4 hours then 24 hours
Method: (§6) Method: HT1080 and UM-SCC6 cells were treated with 1 mM WST-1, 0.4 mM WST-3, 0.5 mM WST-4, 0.5 mM WST-5 or 0.12 mM mPMS alone or each of the WST-3, WST-4, and WST-5 at the same concentration in combination with 0.12 mM mPMS (0.4 mM WST-3+0.12 mM mPMS, 0.5 mM WST-4+0.12 mM mPMS, 0.5 mM WST-5+0.12 mM mPMS) plus 10, 30 or 100 μM apigenin for 4 hours and, then changed to normal growth medium for another 24 hours. Cell viability was measured with CCK8 Kit.

[18] = tested on: HT1080 cells; assay: as above; format: cell-based, human; conditions: 1 mM WST-1, 0.4 mM WST-3, 0.5 mM WST-4, 0.5 mM WST-5, 0.12 mM mPMS; apigenin 10, 30 or 100 μM; 4 hours then 24 hours
Method: as §6

[19] = 4 hours, then 24 hours normal medium, combination 3% WST-1r with 100 μM apigenin or 10% WST-1r with 30 μM apigenin

**Q.** Which “effect of adding mPMS on cell death” value [1] does the source give for “1-methoxy-5-methyl-phenazinium methyl sulfate [mPMS]” here?
**A.** The value was “further synergize the cell death”.

**Q.** And the “effect of adding mPMS on cell death” value [2]?
**A.** Its value is “further synergize the cell death”.

**Q.** And the “sensitivity to mPMS treatment” value ([3]; compared with the cancer cell lines)?
**A.** The value was “least sensitivity to mPMS treatment”.

**Q.** What about the IC50 ([3]; mPMS 4 hours, then 24 hours) of the same compound?
**A.** Its IC50 is 50 µM.

**Q.** What about the “cell death and sensitivity to mPMS” value [4] of the same compound?
**A.** Its value is “mPMS dose dependent cell death and differential sensitivities to mPMS treatment”.

**Q.** What about the IC50 ([5]; combination of apigenin 100 μM and mPMS+WST-1) of the same compound?
**A.** The IC50 was 30 µM.

**Q.** And the cell death [5]?
**A.** The cell death was “dose dependent cell death”.

**Q.** What about the IC50 ([5]; untreated control cells (no apigenin)) of the same compound?
**A.** The IC50 was 80 µM.

**Q.** What about the cell death [6] of the same compound?
**A.** Its cell death is “dose dependent cell death”.

**Q.** And the IC50 [7]?
**A.** Its IC50 is 20 µM and 30 µM.

**Q.** How did the “cell death, single agent” value [8] turn out when `O=c1cc(-c2ccc(O)cc2)oc2cc(O)cc(O)c12` [Apigenin, 4H-1-benzopyran-4-one,5,7-dihydroxy-2-(4-hydroxy-phenyl)-(9CI)] was run?
**A.** The value was “dose dependent but limited cell death”.

**Q.** What about the “cell death, single agent” value [9] of the same compound?
**A.** Its value is “limited cell death”.

**Q.** And the “cell death, single agent” value [10]?
**A.** Its value is “no or limited effect of cell death”.

**Q.** And the “Apigenin 1050” value ([11]; CCK8+apigenin)?
**A.** The value was “did not reached 1050”.

**Q.** And the IC50 ([11]; 10% WST-1r treated UM-SCC6 cells)?
**A.** Its IC50 is 5 µM.

**Q.** And the IC50 ([11]; 10% XTT treated UM-SCC6 cells)?
**A.** The IC50 was 25 µM.

**Q.** And the “Apigenin 1050” value ([11]; apigenin only)?
**A.** The value was “did not reached 1050”.

**Q.** What about the “cell viabilities, single agent treatment” value [12] of the same compound?
**A.** Its value is “little effect on cell viabilities”.

**Q.** And the cell death [5]?
**A.** The cell death was “dose dependent cell death”.

**Q.** And the cell death [6]?
**A.** Its cell death is “dose dependent cell death”.

**Q.** And the “cell death / cell survival” value [13, 19]?
**A.** The value was “little effect on cell survival”.

**Q.** And the IC50 ([13]; Homo sapiens, MDA-MB-231, in the presence of 10% WST-1r)?
**A.** The IC50 was 10 µM.

**Q.** What about the “cell death / cell survival” value [14, 19] of the same compound?
**A.** The value was “little effect on cell survival”.

**Q.** And the IC50 ([14]; Homo sapiens, A-431, in the presence of 10% WST-1r)?
**A.** Its IC50 is 10 µM.

**Q.** And the “phosphorylation of JNK (ratio phosphorylated over total JNK)” value [15]?
**A.** The value was “dose dependent induction of phosphorylation of JNK”.

**Q.** What about the “ROS generation, agent alone” value ([16]; 4 hours) of the same compound?
**A.** Its value is “no effect on ROS generation”.

**Q.** What about the ROS generation ([16]; apigenin combined with CCK8, apigenin dose dependent) of the same compound?
**A.** Its ROS generation is “increase the ROS generation”.

**Q.** What does the source list for `COc1cc(-c2ccc(-n3nc(-c4ccc(C(=O)N(CCS(=O)(=O)[O-])CCS(=O)(=O)[O-])cc4)n[n+]3-c3nc4ccccc4s3)c(OC)c2)ccc1-n1nc(-c2ccc(C(=O)N(CCS(=O)(=O)[O-])CCS(=O)(=O)[O-])cc2)n[n+]1-c1nc2ccccc2s1.[Na+].[Na+]` [WST-5]?
**A.** synergistic effect on inducing cell death in combination with apigenin [17]: no such effect; synergistic effect on inducing cell death in combination with apigenin [18]: no such effect
